Laboratory results as given in US11970473B2, “Nootkatone derivatives and methods of using the same” (Arkansas State University—Jonesboro, priority 2021, dated 2024).

Columns and labels:
Assay in all cases: NCI-60 cancer screen
Assay type in all cases: cell-based, human
K-562 = settings: K-562, Leukemia; 10 μM
HCC-2998 = settings: HCC-2998, Colon Cancer; 10 μM
OVCAR-3 = settings: OVCAR-3, Ovarian Cancer; 10 μM
CAKI-1 = settings: CAKI-1, Renal Cancer; 10 μM
HT29 = settings: HT29, Colon Cancer; 10 μM
SK-MEL-5 = settings: SK-MEL-5, Melanoma; 10 μM
SF-539 = settings: SF-539, CNS Cancer; 10 μM
UACC-257 = settings: UACC-257, Melanoma; 10 μM
MDA-MB-468 = settings: MDA-MB-468, Breast Cancer; 10 μM
SNB-75 = settings: SNB-75, CNS Cancer; 10 μM
A498 = settings: A498, Renal Cancer; 10 μM
RXF 393 = settings: RXF 393, Renal Cancer; 10 μM
OVCAR-5 = settings: OVCAR-5, Ovarian Cancer; 10 μM
MOLT-4 = settings: MOLT-4, Leukemia; 10 μM
HS 578T = settings: Breast Cancer, 10 μM
MCF7 = settings: MCF7, Breast Cancer; 10 μM
OVCAR-8 = settings: OVCAR-8, Ovarian Cancer; 10 μM
NCI-H23 = settings: NCI-H23, Non-Small Cell Lung Cancer; 10 μM
BT-549 = settings: BT-549, Breast Cancer; 10 μM
NCI-H522 = settings: NCI-H522, Non-Small Cell Lung Cancer; 10 μM
NCI-H226 = settings: NCI-H226, Non-Small Cell Lung Cancer; 10 μM
MDA-MB-231/ATCC = settings: Breast Cancer, 10 μM
ACHN = settings: Renal Cancer, 10 μM
NCI/ADR-RES = settings: Ovarian Cancer, 10 μM
SW-620 = settings: SW-620, Colon Cancer; 10 μM
IGROV1 = settings: IGROV1, Ovarian Cancer; 10 μM
UO-31 = settings: UO-31, Renal Cancer; 10 μM
M14 = settings: M14, Melanoma; 10 μM
TK-10 = settings: TK-10, Renal Cancer; 10 μM
HOP-92 = settings: HOP-92, Non-Small Cell Lung Cancer; 10 μM
SK-MEL-28 = settings: SK-MEL-28, Melanoma; 10 μM
NCI-H460 = settings: NCI-H460, Non-Small Cell Lung Cancer; 10 μM
MALME-3M = settings: Melanoma, 10 μM
HCT-116 = settings: HCT-116, Colon Cancer; 10 μM
SK-MEL-2 = settings: SK-MEL-2, Melanoma; 10 μM

C=C(C)[C@@H]1CC=C2c3sc(-c4ccc(O)cc4)nc3C[C@@H](C)[C@]2(C)C1 [Compound 15, 4-[(5R,5aS,7R)-7-isopropenyl-5,5a-dimethyl-5,6,7,8-tetrahydro-4H-benzo[g][1,3]benzothiazol-2-yl]phenol]
Growth Percent (K-562): 92.07% | Growth Percent (HCC-2998): 100.46% | Growth Percent (OVCAR-3): 102.89% | Growth Percent (CAKI-1): 99.88% | Growth Percent (HT29): 105.86% | Growth Percent (SK-MEL-5): 99.11% | Growth Percent (SF-539): 101.06% | Growth Percent (UACC-257): 100.07% | Growth Percent (MDA-MB-468): 102.12% | Growth Percent (SNB-75): 87.74% | Growth Percent (A498): 107.24% | Growth Percent (RXF 393): 113.93% | Growth Percent (OVCAR-5): 106.63% | Growth Percent (MOLT-4): 105.32% | Growth Percent (HS 578T): 100.94% | Growth Percent (MCF7): 89.98% | Growth Percent (OVCAR-8): 98.85% | Growth Percent (NCI-H23): 94.71% | Growth Percent (BT-549): 115.53% | Growth Percent (NCI-H522): 92.28% | Growth Percent (NCI-H226): 94.10% | Growth Percent (MDA-MB-231/ATCC): 101.25% | Growth Percent (ACHN): 100.09% | Growth Percent (NCI/ADR-RES): 105.66% | Growth Percent (SW-620): 103.38% | Growth Percent (IGROV1): 102.22% | Growth Percent (UO-31): 88.19% | Growth Percent (M14): 98.96% | Growth Percent (TK-10): 118.28% | Growth Percent (HOP-92): 96.54% | Growth Percent (SK-MEL-28): 106.43% | Growth Percent (NCI-H460): 104.69% | Growth Percent (MALME-3M): 99.38% | Growth Percent (HCT-116): 114.01% | Growth Percent (SK-MEL-2): 104.08%
